In patent publication US20130136839A1, “Taste-Masking Compositions, Sweetener Compositions and Consumable Product Compositions Containing the Same” (Nutrinova Nutrition Specialties & Food Ingredients GmbH, priority 2011, published 2013):

How the values were obtained:
Format in all cases: in vivo, human
[1] = system: panel of 4 trained sensory evaluators; assay: Taste and spit assay, descriptive taste impression versus base samples, panel of 4 trained sensory evaluators (Examples 3 to 31); conditions: acesulfame K 350 wppm
Procedure: (§1) All tests were conducted under controlled and standardized conditions.
(§2) The samples were prepared by a trained laboratory assistant.
35 ml of the samples were served at room temperature in clear plastic cups.
The following samples comprising a composition of the invention were tested for their ability to improve the taste of artificial sweeteners.
All samples were tested in duplicate and evaluated at least 3 different concentrations in comparison to 3 base samples (samples 1 to 3).
The panelists were asked to evaluate and to describe the taste impression of the samples 4 to 13 containing a sweetener composition comprising acesulfame potassium, sucralose and a composition of the invention, e.g. bitter aftertaste, creaminess, fullness and character of the sweeteners in each case in comparison to the base samples 1 to 3.
The results of the taste and spit assay are based in each case on a qualitative evaluation of the differences between the samples.

[2] = system: panel of 11 trained sensory evaluators; assay: Taste and spit assay with regard to sweetness in the aftertaste, panel of 11 trained sensory evaluators (Example 2); conditions: aqueous samples; 35 ml at 6.0-8.0 °C; aftertaste after 2 minutes; 11 panelists; qualitative, FIG. 2
Procedure: Air was constantly exchanged.
as §2
(§3) The panel used the sweetness scale anchored by three concentrations of sucrose:
(§4) Sweetness was assessed with the 1st sip (max. 30 ml, min of 15 ml) and scored in the aftertaste (after 2 minutes).
(§5) All samples were tested in duplicate.

[3] = system: panel of 4 trained sensory evaluators; assay: Taste and spit assay with regard to sweetness in the aftertaste, panel of 4 trained sensory evaluators (Example 33); conditions: 35 ml at 6.0-8.0 °C; aftertaste after 2 minutes; all 4 panelists; qualitative
Procedure: as §1, §2, §3, §4, §5
The samples with the same composition as in Example 1 have been assessed: […]

[4] = system: panelists; assay: Dilution of naringin in water until its taste is no longer detectable (Example 34); conditions: diluted in water
Source text: The method comprises the step of selecting at least one flavoring. The flavorings may be as discussed herein. The method may further comprise the step of diluting the at least one flavoring with a diluent to form a diluted composition to determine a flavor threshold level at which the flavor of the flavoring is not detectable, e.g., by taste, in the diluted composition. In order to make this determination, the diluted composition may be sampled, e.g., tasted, at various stages of dilution. As the diluted composition becomes more dilute, the flavor of the flavorant will become less recognizable or identifiable. The flavor threshold level is the point at which the flavor of the flavoring is no longer recognized or identified by a taster or taste panel. The method further comprises the step of adding at least one flavoring to a sweetener and/or sweetness enhancer to form a sweetener composition. The sweeteners and/or sweetness enhancers are discussed above. The sweeteners and/or sweetness enhancers may have an unpleasant off-taste associated therewith, as discussed above. Preferably, the flavoring is added to the sweetener and/or the sweetness enhancer at a level at or below the flavor threshold level.
Naringin was diluted in water until the diluted solution reached a concentration of 1.6 wppm. At this concentration, its taste was no longer detectable in water.

[5] = system: panelists; assay: Naringin at non-detectable concentration tested in acesulfame K and acesulfame K/sucralose solutions (Example 34); conditions: naringin 1.6 wppm (not detectable) in acesulfame K (350 ppm) solution and in acesulfame K (350 wppm)/sucralose (80 wppm) solution; all panelists
Source text: The method further comprises the step of determining whether the at least one flavoring, when present in the sweetener composition at or below the flavor threshold level, is capable of modifying, masking, reducing and/or suppressing the unpleasant off-taste of the sweetener/sweetness enhancer in the sweetener composition. This determination may be made by employing suitable methods known in the art. For example the determination may be made by utilizing a taster or a taste panel. The taster may sample the prepared sweetener composition and make a determination as to whether the off-taste has been modified, masked, reduced, and/or suppressed. If so, then the particular flavoring is capable of modifying, masking, reducing, and/or suppressing unpleasant off-tastes. Preferably, the flavor of the flavoring is not detectable, e.g., by taste, in the sweetener composition, the sweetness enhancer composition, and/or the consumable product composition.
Then, naringin was tested at this concentration in an aceslfame K (350 ppm) solution and in an acesulfame K (350 wppm)/sucralose (80 wppm) solution.

[6] = composition with amino acids: benzaldehyde 0.02 wppm in sample 13 (sucralose 75 wppm), quinine 0.01 wppm in sample 32 (sucralose 80 wppm)
[7] = composition without amino acids: benzaldehyde 0.02 wppm in sample 12, quinine 0.01 wppm in sample 31, sucralose 80 wppm

Compound: O=Cc1ccccc1 [Benzaldehyde, benzaldehyde]
- further effect added to the composition by the substance used below its threshold [1, 6]: did not add any further effect to the composition of the invention
- further effect added to the composition by the substance used below its threshold [1, 7]: did not add any further effect to the composition of the invention

Compound: saccharose [Sample 1]
- sweetness in the aftertaste [2]: less sweet in the aftertaste than acesulfame potassium and sucralose
- sweetness in the aftertaste [3]: less sweet in the aftertaste compared to acesulfame potassium and sucralose

Compound: C[C@@H]1O[C@@H](O[C@H]2[C@H](Oc3cc(O)c4c(c3)O[C@H](c3ccc(O)cc3)CC4=O)O[C@H](CO)[C@@H](O)[C@@H]2O)[C@H](O)[C@H](O)[C@H]1O [Naringin]
- concentration at which its taste was no longer detectable in water [4]: 1.6 wppm
- effect on the bitter aftertaste of acesulfame K [5]: improve the bitter aftertaste of acesulfame K

Compound: C=C[C@H]1C[N@@]2CC[C@H]1C[C@H]2[C@H](O)c1ccnc2ccc(OC)cc12 [Quinine, quinine]
- further effect added to the composition by the substance used below its threshold [1, 6]: does not add anything to the effects of the composition
- further effect added to the composition by the substance used below its threshold [1, 7]: does not add anything to the effects of the composition

Compound: delta-undecalactone
- taste contribution of the lactone to the total composition ([1]; delta-undecalactone 0.0388 wppm in sample 14 with naringin, 4-methoxy salicylaldehyde, syringaldehyde, whiskey lactone, sucralose 80 wppm, all panelists): not being too volatile and as adding a creamy taste, and as improving the total composition
